Values quoted from earlier work, collected in patent US5240711A, “Transdermal therapeutic system comprising as active component buprenorphine” (LTS Lohmann Therapie-Systeme GmbH & Co. KG, priority 1989, dated 1993).

Experiments:
[1] = tested on: human skin

Structure (SMILES): CO[C@]12CC[C@@]3(C[C@@H]1[C@](C)(O)C(C)(C)C)[C@H]1Cc4ccc(O)c5c4[C@@]3(CCN1CC1CC1)[C@H]2O5 [buprenorphine, 17-(cyclopropylmethyl)-α-(1,1-dimethylethyl)-4,5-epoxy-18,19-dihydro-3-hydroxy-6-methoxy-α-methyl-6,14-ethenomorphinane-7-methanol]
- penetration through the human skin [1]: only badly penetrates through the human skin
- solubility in conventional organic solvents and water: very slight solubility
